pIC50, pKi: −log10 of the molar value. ≈ marks a conversion by molar mass, not a printed value. Calls of active or inactive are those of the source. The calls are words filed in the database; no cut-off is given here.
How the values were obtained:
[1] = Intrinsic clearance in CD1 mouse liver microsomes at 1 uM; assay type: ADME, Microsome; details: read-out: CLH
[2] = Kinetic aqueous solubility of the compound; assay type: physicochemical; details: buffer; read-out: Kinetic_solubility
[3] = Half life in Sprague-Dawley rat liver microsomes at 1 uM; assay type: ADME, Microsome
[4] = molecular target: Procathepsin L (Homo sapiens) (UniProt P07711); test: Inhibition of cathepsin L (unknown origin) assessed as reduction in pNA release using chromogenic Z-Phe-Arg-pNA substrate measured over 1 hr by spectrophotometry
[5] = Half life in CD1 mouse liver microsomes at 1 uM; assay type: ADME, Microsome
[6] = molecular target: Cytochrome P450 2B6 (Homo sapiens, UniProt P20813); test: Inhibition of recombinant human CYP2B6 at 100 nM; assay type: ADME; details: recombinant enzyme, 0.1 µM
[7] = Intrinsic clearance in human liver microsomes at 1 uM; assay type: ADME, Microsome; details: read-out: CLH
[8] = Stability in human liver microsomes assessed as drug degradation at 1 uM measured within 15 mins; assay type: ADME, Microsome; details: read-out: Drug degradation
[9] = molecular target: Cytochrome P450 2D6 (Homo sapiens, UniProt P10635); test: Inhibition of recombinant human CYP2D6 at 100 nM; assay type: ADME; details: recombinant enzyme, 0.1 µM
[10] = molecular target: Cytochrome P450 1A2 (Homo sapiens, UniProt P05177); test: Inhibition of recombinant human CYP1A2 at 100 nM; assay type: ADME; details: recombinant enzyme, 0.1 µM
[11] = Intrinsic clearance in Sprague-Dawley rat liver microsomes at 1 uM; assay type: ADME, Microsome; details: read-out: CLH
[12] = molecular target: T1, P2X purinoceptor 3 (Homo sapiens, UniProt P56373); test: Inhibition of human P2X3 assessed as reduction in agonist-induced intracellular Ca2+ concentration pre-incubated for 30 mins before agonist addition by calcium 5 dye based fluorescence assay; assay type: cell-based
T1 sequence (P56373 whole entry): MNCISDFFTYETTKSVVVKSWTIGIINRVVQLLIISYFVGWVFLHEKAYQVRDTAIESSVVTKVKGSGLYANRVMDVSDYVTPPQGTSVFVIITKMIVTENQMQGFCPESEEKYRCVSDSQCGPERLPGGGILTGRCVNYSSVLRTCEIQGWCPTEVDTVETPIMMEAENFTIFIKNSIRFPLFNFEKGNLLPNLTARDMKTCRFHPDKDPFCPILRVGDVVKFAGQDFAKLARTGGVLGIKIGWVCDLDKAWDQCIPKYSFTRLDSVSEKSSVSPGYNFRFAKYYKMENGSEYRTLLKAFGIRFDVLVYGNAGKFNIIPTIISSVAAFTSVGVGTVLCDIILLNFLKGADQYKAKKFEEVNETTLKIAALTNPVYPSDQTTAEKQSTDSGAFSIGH

[13] = molecular target: Cathepsin B (Homo sapiens) (UniProt P07858); test: Inhibition of cathepsin B (unknown origin) assessed as reduction in pNA release using chromogenic Z-Arg-Arg-pNA substrate measured over 1 hr by spectrophotometry
[14] = molecular target: T2, Adenosine receptor A3 (Homo sapiens, UniProt P0DMS8); test: Displacement of [3H]PSB-11 from human A3 adenosine receptor expressed in CHO cell membranes incubated for 60 mins by liquid scintillation counting method
T2 sequence (P0DMS8 whole entry): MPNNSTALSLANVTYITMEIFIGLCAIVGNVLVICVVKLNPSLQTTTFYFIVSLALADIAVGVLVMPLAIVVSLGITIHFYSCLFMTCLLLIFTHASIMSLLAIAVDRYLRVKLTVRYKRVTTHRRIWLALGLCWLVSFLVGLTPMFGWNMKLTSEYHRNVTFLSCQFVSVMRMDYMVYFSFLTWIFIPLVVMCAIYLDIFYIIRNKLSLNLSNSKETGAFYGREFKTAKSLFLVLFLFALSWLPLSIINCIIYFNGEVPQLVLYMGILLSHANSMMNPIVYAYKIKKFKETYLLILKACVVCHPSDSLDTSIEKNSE

[15] = molecular target: T3, Cytochrome P450 2C19 (Homo sapiens, UniProt P33261); test: Inhibition of recombinant human CYP2C19 at 1 uM; assay type: ADME; details: recombinant enzyme
[16] = molecular target: T3, Cytochrome P450 2C19; test: Inhibition of recombinant human CYP2C19 at 100 nM; assay type: ADME; details: recombinant enzyme, 0.1 µM
[17] = molecular target: T4, Cytochrome P450 2C9 (Homo sapiens, UniProt P11712); test: Inhibition of recombinant human CYP2C9 at 100 nM; assay type: ADME; details: recombinant enzyme, 0.1 µM
[18] = molecular target: P2X purinoceptor 3 (Homo sapiens) (UniProt P56373); test: Inhibition of human P2X3 expressed in human 1321N1 cell membranes assessed as reduction in ATP-induced inhibition of [35S]ATPgammaS binding at 1 pm to 10 mM
[19] = molecular target: Chymotrypsin (Homo sapiens) (UniProt Q99895+P17538+P40313+Q6GPI1); test: Inhibition of chymotrypsin (unknown origin) assessed as reduction in pNA release using chromogenic Suc-Ala-Ala-Pro-Phe-pNA substrate measured over 12.5 mins by spectrophotometry; assay type: protein assay
[20] = molecular target: T4, Cytochrome P450 2C9; test: Inhibition of recombinant human CYP2C9 at 1 uM; assay type: ADME; details: recombinant enzyme
[21] = molecular target: T5, Cytochrome P450 3A4 (Homo sapiens, UniProt P08684); test: Inhibition of recombinant human CYP3A4 at 100 nM; assay type: ADME; details: recombinant enzyme, 0.1 µM
[22] = molecular target: Trypsin (Homo sapiens) (UniProt P07477+P07478+P35030); test: Inhibition of trypsin (unknown origin) assessed as reduction in pNA release using chromogenic Suc-Ala-Ala-Pro-Arg-pNA substrate measured over 10 mins by spectrophotometry; assay type: protein assay
[23] = cells; details: Homo sapiens, 1321-N1, 72 h
Description: Growth inhibition of human 1321N1 cells incubated for 72 hrs by MTT assay

[24] = Stability in CD1 mouse liver microsomes assessed as drug degradation at 1 uM measured within 15 mins; assay type: ADME, Microsome; details: read-out: Drug degradation
[25] = Stability in Sprague-Dawley rat liver microsomes assessed as drug degradation at 1 uM measured within 15 mins; assay type: ADME, Microsome; details: read-out: Drug degradation
[26] = Half life in human liver microsomes at 1 uM; assay type: ADME, Microsome
[27] = molecular target: T5, Cytochrome P450 3A4; test: Inhibition of recombinant human CYP3A4 at 1 uM; assay type: ADME; details: recombinant enzyme
[28] = Permeability in human Caco2 cells at 10 uM; assay type: ADME, cell-based; details: caco-2, 10 µM
[29] = molecular target: T6, Neutrophil elastase (Homo sapiens, UniProt P08246); test: Inhibition of human leukocyte elastase assessed as reduction in pNA release using chromogenic MeO-Suc-Ala-Ala-Pro-Val-pNA substrate measured over 10 mins by spectrophotometry; details: read-out: IC50
T6 sequence (P08246 whole entry): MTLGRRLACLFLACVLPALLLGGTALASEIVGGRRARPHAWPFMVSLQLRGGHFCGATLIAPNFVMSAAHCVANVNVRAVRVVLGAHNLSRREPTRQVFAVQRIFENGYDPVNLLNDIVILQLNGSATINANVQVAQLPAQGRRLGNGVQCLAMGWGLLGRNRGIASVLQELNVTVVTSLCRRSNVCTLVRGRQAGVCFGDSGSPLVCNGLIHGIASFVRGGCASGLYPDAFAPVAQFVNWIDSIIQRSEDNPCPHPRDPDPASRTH

T4 sequence (P11712 whole entry): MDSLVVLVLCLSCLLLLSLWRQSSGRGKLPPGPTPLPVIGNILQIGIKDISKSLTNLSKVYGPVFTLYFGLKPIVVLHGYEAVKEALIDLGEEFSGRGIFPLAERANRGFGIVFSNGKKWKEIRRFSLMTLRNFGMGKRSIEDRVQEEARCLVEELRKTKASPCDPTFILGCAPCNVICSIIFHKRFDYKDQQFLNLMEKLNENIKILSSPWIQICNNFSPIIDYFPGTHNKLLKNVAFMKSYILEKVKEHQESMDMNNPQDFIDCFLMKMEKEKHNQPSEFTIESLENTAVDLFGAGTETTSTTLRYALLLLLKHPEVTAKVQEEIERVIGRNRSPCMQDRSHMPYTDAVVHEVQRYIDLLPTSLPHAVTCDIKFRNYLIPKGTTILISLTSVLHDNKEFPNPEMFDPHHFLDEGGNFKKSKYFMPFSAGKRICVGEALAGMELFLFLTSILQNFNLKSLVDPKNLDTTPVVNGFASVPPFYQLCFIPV
T3 sequence (P33261 whole entry): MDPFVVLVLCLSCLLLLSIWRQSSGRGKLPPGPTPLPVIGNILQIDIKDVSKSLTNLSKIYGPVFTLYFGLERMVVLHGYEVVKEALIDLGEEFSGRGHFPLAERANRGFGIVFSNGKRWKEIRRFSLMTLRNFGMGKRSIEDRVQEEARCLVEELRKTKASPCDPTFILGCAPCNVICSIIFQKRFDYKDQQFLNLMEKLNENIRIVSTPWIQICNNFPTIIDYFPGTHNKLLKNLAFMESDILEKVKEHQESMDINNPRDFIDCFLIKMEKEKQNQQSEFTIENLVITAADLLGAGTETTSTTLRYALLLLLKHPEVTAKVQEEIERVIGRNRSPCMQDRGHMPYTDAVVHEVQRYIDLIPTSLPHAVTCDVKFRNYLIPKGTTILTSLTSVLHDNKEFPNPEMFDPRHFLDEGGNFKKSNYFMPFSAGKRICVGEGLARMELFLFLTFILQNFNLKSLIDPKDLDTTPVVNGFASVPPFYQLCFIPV
T5 sequence (P08684 whole entry): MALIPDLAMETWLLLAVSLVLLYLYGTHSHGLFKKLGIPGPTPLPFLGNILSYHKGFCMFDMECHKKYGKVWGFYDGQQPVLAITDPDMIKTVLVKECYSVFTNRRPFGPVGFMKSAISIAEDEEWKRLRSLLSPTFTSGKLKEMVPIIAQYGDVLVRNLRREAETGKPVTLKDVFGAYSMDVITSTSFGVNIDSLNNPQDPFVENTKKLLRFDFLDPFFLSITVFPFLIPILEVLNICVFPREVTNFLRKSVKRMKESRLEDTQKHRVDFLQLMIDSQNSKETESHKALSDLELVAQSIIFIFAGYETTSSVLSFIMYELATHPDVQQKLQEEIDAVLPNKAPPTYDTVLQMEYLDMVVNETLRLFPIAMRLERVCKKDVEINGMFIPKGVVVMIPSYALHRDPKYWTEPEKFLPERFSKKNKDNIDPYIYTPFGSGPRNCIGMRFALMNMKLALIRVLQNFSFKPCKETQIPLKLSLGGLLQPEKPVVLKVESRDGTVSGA
Sequence of Cytochrome P450 2B6 (P20813 whole entry): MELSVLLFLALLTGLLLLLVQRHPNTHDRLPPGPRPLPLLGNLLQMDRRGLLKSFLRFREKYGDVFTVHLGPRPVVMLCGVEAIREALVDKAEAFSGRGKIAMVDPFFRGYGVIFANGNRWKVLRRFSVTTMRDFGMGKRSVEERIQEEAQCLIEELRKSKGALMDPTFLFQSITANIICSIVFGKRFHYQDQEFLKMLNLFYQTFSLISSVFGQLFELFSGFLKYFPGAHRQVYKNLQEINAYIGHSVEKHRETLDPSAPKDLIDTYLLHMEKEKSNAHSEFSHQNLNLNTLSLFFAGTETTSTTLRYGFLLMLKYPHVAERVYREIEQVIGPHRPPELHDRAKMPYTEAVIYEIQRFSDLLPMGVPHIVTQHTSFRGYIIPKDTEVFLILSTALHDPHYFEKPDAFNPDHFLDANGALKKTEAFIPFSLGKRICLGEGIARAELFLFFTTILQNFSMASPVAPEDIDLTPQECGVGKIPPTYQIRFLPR
Sequence of Cytochrome P450 2D6 (P10635 whole entry): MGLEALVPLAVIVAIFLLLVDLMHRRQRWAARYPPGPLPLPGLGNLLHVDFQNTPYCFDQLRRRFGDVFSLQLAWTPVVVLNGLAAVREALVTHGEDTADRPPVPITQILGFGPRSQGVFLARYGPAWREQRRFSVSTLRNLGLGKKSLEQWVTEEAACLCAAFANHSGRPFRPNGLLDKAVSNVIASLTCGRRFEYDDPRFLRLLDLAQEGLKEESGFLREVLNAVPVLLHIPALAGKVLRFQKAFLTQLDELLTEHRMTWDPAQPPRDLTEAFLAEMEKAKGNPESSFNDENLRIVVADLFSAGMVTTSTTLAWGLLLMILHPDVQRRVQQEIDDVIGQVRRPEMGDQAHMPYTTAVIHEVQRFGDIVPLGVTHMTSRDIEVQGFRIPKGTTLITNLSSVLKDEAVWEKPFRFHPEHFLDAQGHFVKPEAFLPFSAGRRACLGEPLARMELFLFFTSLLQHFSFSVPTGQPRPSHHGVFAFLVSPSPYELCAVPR
Sequence of Cytochrome P450 1A2 (P05177 whole entry): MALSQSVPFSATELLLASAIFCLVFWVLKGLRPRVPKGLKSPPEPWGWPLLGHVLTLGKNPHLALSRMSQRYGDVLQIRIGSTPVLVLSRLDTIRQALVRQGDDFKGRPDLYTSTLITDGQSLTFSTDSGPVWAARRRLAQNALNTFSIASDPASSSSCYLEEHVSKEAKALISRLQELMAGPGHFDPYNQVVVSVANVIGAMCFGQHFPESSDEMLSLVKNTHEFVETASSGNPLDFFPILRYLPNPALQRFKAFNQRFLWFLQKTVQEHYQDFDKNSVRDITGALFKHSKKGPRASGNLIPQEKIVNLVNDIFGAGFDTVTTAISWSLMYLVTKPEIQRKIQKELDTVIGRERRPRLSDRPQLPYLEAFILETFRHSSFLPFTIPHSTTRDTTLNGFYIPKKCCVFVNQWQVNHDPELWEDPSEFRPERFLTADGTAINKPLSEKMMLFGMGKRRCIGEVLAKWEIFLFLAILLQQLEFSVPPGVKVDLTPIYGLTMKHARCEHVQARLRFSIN
Sequence of Procathepsin L (Homo sapiens) (P07711 114-333 limits assumed): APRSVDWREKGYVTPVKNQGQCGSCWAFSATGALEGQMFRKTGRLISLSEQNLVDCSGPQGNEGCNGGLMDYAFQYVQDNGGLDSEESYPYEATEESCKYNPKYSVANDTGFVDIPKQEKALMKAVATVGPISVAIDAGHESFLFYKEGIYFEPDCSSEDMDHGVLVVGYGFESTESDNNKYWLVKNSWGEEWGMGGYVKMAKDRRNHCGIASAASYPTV

For `CNC(=O)O[C@@H](CC(C)C)c1nc([C@H]2OC(=O)/C=C/C/C(C)=C/[C@@H](O)[C@@H](C)\C=C(C)/C=C(C)\C=C\[C@@H](O)[C@H](C)[C@H](OC)/C(C)=C/C=C/[C@@H]2C)cs1` [ARCHAZOLID B], which microsomal CLint at 1 µM [1] is on record?
The microsomal CLint at 1 µM was 495 µL/min/mg.

And the solubility kinetic [2]?
The solubility kinetic was 1.6 µM (≈ 1.16 µg/mL).

And the half-life at 1 µM [3]?
The half-life at 1 µM was 4.6 min.

What about the inhibition [4] of the same compound?
Its inhibition is “inactive”.

And the half-life at 1 µM [5]?
The half-life at 1 µM was 2.8 min.

And the “inhibition (INH)” value [6]?
Its value is “Active”.

What about the microsomal CLint at 1 µM [7] of the same compound?
Its microsomal CLint at 1 µM is 533 µL/min/mg.

What about the metabolised at 0.25 h, 1 µM [8] of the same compound?
Its metabolised at 0.25 h, 1 µM is 100%.

What about the “inhibition (INH)” value [9] of the same compound?
The value was “Active”.

What about the “inhibition (INH)” value [10] of the same compound?
The value was “Active”.

And the microsomal CLint at 1 µM [11]?
The microsomal CLint at 1 µM was 301 µL/min/mg.

And the pIC50 [12]?
Its pIC50 is 6.45.

And the inhibition [13]?
Its inhibition is “inactive”.

And the pKi [14]?
The pKi was 5.93.

And the “inhibition (INH)” value [15]?
Its value is “Active”.

And the “inhibition (INH)” value [16]?
The value was “Active”.

And the “inhibition (INH)” value [17]?
Its value is “Active”.

What about the inhibition [18] of the same compound?
Its inhibition is “inactive”.

And the inhibition [19]?
The inhibition was “inactive”.

What about the “inhibition (INH)” value [20] of the same compound?
Its value is “Active”.

What about the “inhibition (INH)” value [21] of the same compound?
The value was “Active”.

What about the inhibition [22] of the same compound?
Its inhibition is “inactive”.

What about the pIC50 [23] of the same compound?
The pIC50 was 9.84.

What about the metabolised at 0.25 h, 1 µM [24] of the same compound?
The metabolised at 0.25 h, 1 µM was 100%.

What about the metabolised at 0.25 h, 1 µM [25] of the same compound?
The metabolised at 0.25 h, 1 µM was 100%.

And the half-life at 1 µM [26]?
Its half-life at 1 µM is 2.6 min.

What about the “inhibition (INH)” value [27] of the same compound?
Its value is “Active”.

And the permeability [28]?
The permeability was “Impermeable”.

And the pIC50 [29]?
Its pIC50 is 6.50.

From ChEMBL document CHEMBL4376896, “Synthesis of Novel Potent Archazolids: Pharmacology of an Emerging Class of Anticancer Drugs” (J Med Chem, 2020)
